Laboratory results: PMC8808171, “Nonselective TRPC channel inhibition and suppression of aminoglycoside-induced premature termination codon readthrough by the small molecule AC1903” (The Journal of Biological Chemistry, 2022)
“Also recorded” adds a separate entry of the source.

System: A498 cells
Assay: Cell viability assay (WST-1), A498 cells, AC1903 alone
Assay type: cell-based
Conditions: 0.1–100 μM, 8 h
Protocol: Cell viability assays were carried out using WST-1 Cell Proliferation Reagent (Merck). A498 cells were plated onto clear 96-well plates at 4000 cells per well and left to adhere for 24 h. Media was then removed, and replaced with fresh media containing 100 nM EA, in presence of either DMSO or 0.1 to 100 μM AC1903. Control wells were treated with vehicle (DMSO) only. To exclude any potential cytotoxic effects of AC1903 itself, cells were incubated with 0.1 to 100 μM AC1903 in absence of EA. Cells were treated in triplicate. Cells were incubated with compounds for 8 h. After 8 h, treatment media was removed and media containing WST-1 reagent (10 μl reagent +100 μl media per well) was added to each well and incubated for 1.5 h at 37 °C. Blank wells contained media and WST-1 reagent (no cells). […] Absorbance was then read at 440 nm and 650 nm (reference wavelength). To analyze data, the value of the 650 nm was subtracted from that of the 440 nm reading. Values across triplicate wells were averaged, and the value from the blank wells subtracted to account for background absorbance. […]
Inhibition of G418-induced premature stop codon readthrough
A498 cytotoxicity . […] Cell viability was calculated as % of control, and the effect of AC1903 was compared to control (0 µM ) (scatter plots showing data from three independent experiments; bars represent mean ± SD; n = 3). […]

## c1ccc(Cn2c(NCc3ccco3)nc3ccccc32)cc1 [AC1903]
  effect on viability of A498 cells: not toxic; also recorded: did not affect viability
